Results: patent US8063221B2, “Aminoquinolones as GSK-3 inhibitors” (Kyorin Pharmaceutical Co., Ltd., priority 2006, dated 2011)
Converted amounts (≈) assume the structure as drawn. Where two headings read alike, the source gives them in different places.

Columns and labels:
E. coli, ATCC8739 = test: Antibacterial activity (MIC), E. coli; assay type: cell-based; conditions: Escherichia coli
Method in brief: (§1)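 MIC, the lowest compound concentration inhibiting bacterial growth in culture medium, determined by dilution method per CLSI M7-A4 guidance; reported in μM.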

[1] = target: T1, recombinant full-length human GSK3β (Homo sapiens, UniProt P49841); test: Luciferase-coupled cell-free GSK3β kinase assay; assay type: biochemical
T1 construct: recombinant full-length human GSK3β (Upstate); purchased Upstate
T1 sequence (P49841 whole entry): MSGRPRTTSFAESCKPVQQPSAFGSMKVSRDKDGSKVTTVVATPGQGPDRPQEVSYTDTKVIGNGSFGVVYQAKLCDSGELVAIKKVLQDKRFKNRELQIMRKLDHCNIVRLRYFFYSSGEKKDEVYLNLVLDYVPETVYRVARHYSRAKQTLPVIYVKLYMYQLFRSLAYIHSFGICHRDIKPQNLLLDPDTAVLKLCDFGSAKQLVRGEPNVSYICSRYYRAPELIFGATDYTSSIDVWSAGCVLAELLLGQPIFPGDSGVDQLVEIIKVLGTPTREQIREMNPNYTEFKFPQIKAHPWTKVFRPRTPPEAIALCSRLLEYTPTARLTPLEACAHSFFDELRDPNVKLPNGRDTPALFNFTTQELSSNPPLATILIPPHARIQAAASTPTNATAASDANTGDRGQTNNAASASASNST
Method in brief: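 GSK3β, 10-25 ng, was incubated with compound for 1 h at 30° C in MOPS pH 7.0 buffer containing 62.5 μM phospho-glycogen synthase peptide-2 and 5 μM ATP. Remaining ATP was read by KinaseGlo luminescence, and IC50 was fitted from % inhibition relative to maximal inhibition.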

S. aureus Smith = test: Antibacterial activity (MIC), S. aureus; assay type: cell-based; conditions: Staphylococcus aureus
Method in brief: as §1

[2] = Animal Study 2 (oral glucose tolerance test); set-up: species or system Crlj:CD1 (ICR) mice; conditions: Mus musculus, read-out: In vivo studies 300 mg/kg (oral glucose tolerance test, % decrease)
Description: The results of in vivo oral glucose tolerance test (Example 39), expressed as % decrease, are presented as follows: […]
Animal Study 2 (Oral Glucose Tolerance Test)
Male Crlj:CD1 (ICR) mice were obtained from Charles River Laboratries Japan (Yokohama, Japan). All mice were given a standard diet (Clea Japan, Tokyo, Japan) and tap water ad libitum. All institutional guidelines for animal care and use were applied in this study. Test compounds were suspended in 0.3% carboxymethyl-cellulose sodium salt (CMC-Na; Sigma, St. Louis, Mo.). After fasting for 15-17 hr, the test compound (300 mg/kg) or vehicle (0.3% CMC-Na) was orally administered to 7-week-old ICR mice. Glucose solution (5 g/kg) was orally administered at 30 min after test compound treatment. Blood samples were collected from tail vein using capillary tubes containing EDTA·2K before test compound treatment, and at 0, 0.5, 1, and 2 hr after glucose load. The blood samples were centrifuged at 2,500×g for 5 min and separated plasma was kept on ice and analyzed in the same day. Plasma glucose levels were determined using the glucose C II-test (Wako Pure Chemical Industries, Osaka, Japan).
The sum of plasma glucose levels at 0.5 and 1 hr after glucose load was compared to that of vehicle treatment, and results were presented as percent decrease.

[3] = Animal Study 1 (blood glucose in db/db mice); assay type: in vivo; conditions: 100 mg/kg orally, 0-6 hr after administration
Description: Animal Study 1 Male obese hyperglycemic mice (db/db) and lean mice (C57BL/6J) were obtained from Charles River Laboratories Japan (Yokohama, Japan). All mice were given a standard diet (Clea Japan, Tokyo, Japan) and tap water ad libitum. All institutional guidelines for animal care and use were applied in this study. Test compounds were suspended in 0.3% carboxymethyl-cellulose sodium salt (CMC-Na; Sigma, St. Louis, Mo.). After fasting for 2 hr, the test compounds (100 mg/kg) were administered orally to 7-week-old db/db mice. Vehicle (0.3% CMC-Na) was administered orally to both 7-week-old db/db mice and lean mice. Blood samples were collected from tail vein using capillary tubes containing EDTA·2K at 0, 0.5, 1, 2, 4, and 6 hr after the administration. The blood samples were centrifuged at 2,500×g for 5 min and separated plasma was kept on ice and analyzed in the same day. Plasma glucose levels were determined using the glucose CII-test (Wako Pure Chemical Industries, Osaka, Japan). CHIR99021 is a selective inhibitor of GSK3 enzyme known in the art (see, Ring D B et al., Selective GSK-3 inhibitors potentiate insulin activation of glucose transport and utilization in vitro and in vivo. Diabetes 2003, 52(3): 588-595).

[4] = ATCC8739, Table 2, E. coli ATCC8739, read-out: Antimicrobial MIC [μM] E. Coli
[5] = Table 2, S. aureus Smith, read-out: Antimicrobial MIC [μM] S. aureus
[6] = Table 2, 300 mg/kg oral, ICR mice, plasma glucose 0.5 and 1 hr after glucose load vs vehicle
[7] = ATCC8739, Table 1, E. coli ATCC8739, read-out: Antibacterial MIC (μM) E.Coli
[8] = Table 1, read-out: Antibacterial MIC (μM) S. aureus Smith
[9] = Table 1, 300 mg/kg oral, ICR mice, plasma glucose 0.5 and 1 hr after glucose load vs vehicle

Q: For `C[C@H]1COc2c(NCCNc3ccccn3)c(F)c(N)c3c(=O)c(C(=O)O)cn1c23` [compound 18], which MIC (E. coli, ATCC8739; [4]) is on record?
A: 0.5 to 10 µM (≈ 0.207 to 4.13 µg/mL)

Q: And the IC50 ([1]; Table 2)?
A: < 100 nM

Q: And the MIC (S. aureus Smith; [5])?
A: 0.5 to 10 µM (≈ 0.207 to 4.13 µg/mL)

Q: And the inhibition in vivo at 300 mg/kg [2, 6]?
A: 10 to 20%

Q: For `Nc1c(F)c(NCCNc2ccccn2)cc2c1c(=O)c(C(=O)O)cn2CCc1ccccc1` [Example 119], which MIC (E. coli, ATCC8739; [4]) is on record?
A: 10 to 50 µM (≈ 4.61 to 23.1 µg/mL)

Q: What about the IC50 ([1]; Table 2) of the same compound?
A: < 100 nM

Q: What about the MIC (S. aureus Smith; [5]) of the same compound?
A: 10 to 50 µM (≈ 4.61 to 23.1 µg/mL)

Q: And the inhibition in vivo at 300 mg/kg [2, 6]?
A: < 5%

Q: Which results are given for `COc1c(NCCNc2cccc3ccccc23)c(F)c(N)c2c(=O)c(C(=O)O)cn(C3CC3)c12` [compound 70]?
A: MIC (E. coli, ATCC8739; [7]): > 50 µM; IC50 ([1]; Table 1): < 100 nM; MIC (S. aureus Smith; [8]): 0.5 to 10 µM (≈ 0.238 to 4.77 µg/mL); inhibition in vivo at 300 mg/kg [2, 9]: < 5%

Q: For `Cc1c[nH]c(-c2cnc(NCCNc3ccc(C#N)cn3)nc2-c2ccc(Cl)cc2Cl)n1` [CHIR99021], which “blood glucose levels (FIG. 1)” value [3] is on record?
A: drop in blood glucose levels

Q: For `C[C@H]1COc2c(NCCCNC(=O)C34CC5CC(CC(C5)C3)C4)c(F)c(N)c3c(=O)c(C(=O)O)cn1c23` [compound 80], which IC50 ([1]; Table 2) is on record?
A: < 100 nM

Q: And the inhibition in vivo at 300 mg/kg [2, 6]?
A: 5 to 10%

Q: Which IC50 ([1]; Table 2) does the source give for `C[C@H]1COc2c(NCCCn3ccnc3)c(F)c(N)c3c(=O)c(C(N)=O)cn1c23` [Example 107] here?
A: 100 to 500 nM

Q: What about the inhibition in vivo at 300 mg/kg [2, 6] of the same compound?
A: 10 to 20%

Q: With `C[C@@H]1COc2c(NCCNc3ccccn3)c(F)c(N)c3c(=O)c(C(=O)O)cn1c23` [compound 31] as the compound, how does the MIC (E. coli, ATCC8739; ATCC8739, read-out: Antimicrobial MIC [μM] E. Coli) read?
A: 10 to 50 µM (≈ 4.13 to 20.7 µg/mL)

Q: And the IC50 ([1]; Table 2)?
A: 100 to 500 nM

Q: What about the MIC (S. aureus Smith; read-out: Antimicrobial MIC [μM] S. aureus) of the same compound?
A: 10 to 50 µM (≈ 4.13 to 20.7 µg/mL)

Q: And the inhibition in vivo at 300 mg/kg ([2]; po)?
A: > 20%

Q: For `C[C@H]1COc2c(NCCCn3ccnc3)c(F)c(N)c3c(=O)c(C#N)cn1c23` [Example 114], which IC50 ([1]; Table 2) is on record?
A: < 100 nM

Q: And the inhibition in vivo at 300 mg/kg [2, 6]?
A: > 20%

Q: Which results are given for `C[C@H]1COc2c(NCCOc3ccc(F)cc3)c(F)c(N)c3c(=O)c(C(=O)O)cn1c23` [Example 101]?
A: IC50 ([1]; Table 2): < 100 nM; inhibition in vivo at 300 mg/kg [2, 6]: 10 to 20%

Q: For `Nc1c(F)c(NCCCn2ccnc2)c(F)c2c1c(=O)ccn2CCc1ccccc1` [compound 62], which MIC (E. coli, ATCC8739; [7]) is on record?
A: > 50 µM

Q: And the IC50 ([1]; Table 1)?
A: 100 to 500 nM

Q: What about the MIC (S. aureus Smith; [8]) of the same compound?
A: > 50 µM

Q: And the inhibition in vivo at 300 mg/kg [2, 9]?
A: 5 to 10%

Q: Which MIC (E. coli, ATCC8739; [7]) does the source give for `COc1c(NCCNc2ccccn2)c(F)c(N)c2c(=O)c(C(=O)O)cn(C3CC3)c12` [compound 71] here?
A: 0.5 to 10 µM (≈ 0.214 to 4.27 µg/mL)

Q: What about the IC50 ([1]; Table 1) of the same compound?
A: 100 to 500 nM

Q: And the MIC (S. aureus Smith; [8])?
A: 0.5 to 10 µM (≈ 0.214 to 4.27 µg/mL)

Q: And the inhibition in vivo at 300 mg/kg [2, 9]?
A: 10 to 20%

Q: With `CC1(C)CCOc2c(NCCNc3ccccn3)c(F)c(N)c3c(=O)c(C(=O)O)cn1c23` [Example 139] as the compound, how does the MIC (E. coli, ATCC8739; [4]) read?
A: > 50 µM

Q: And the IC50 ([1]; Table 2)?
A: 100 to 500 nM

Q: What about the MIC (S. aureus Smith; [5]) of the same compound?
A: > 50 µM

Q: What about the inhibition in vivo at 300 mg/kg [2, 6] of the same compound?
A: > 20%

Q: What does the source list for `C[C@H]1COc2c(NCCCc3ccccn3)c(F)c(N)c3c(=O)c(C(=O)O)cn1c23` [compound 70]?
A: IC50 ([1]; Table 2): < 100 nM; inhibition in vivo at 300 mg/kg [2, 6]: > 20%

Q: For `C[C@H]1COc2c(NCCCc3ccc(F)cc3)c(F)c(N)c3c(=O)c(C(=O)O)cn1c23` [compound 72], which IC50 ([1]; Table 2) is on record?
A: < 100 nM

Q: And the inhibition in vivo at 300 mg/kg [2, 6]?
A: > 20%

Q: With `CC1(C)Cn2cc(C(=O)O)c(=O)c3c(N)c(F)c(NCCNc4ccccn4)c(c32)O1` [compound 57] as the compound, how does the MIC (E. coli, ATCC8739; [4]) read?
A: 10 to 50 µM (≈ 4.27 to 21.4 µg/mL)

Q: And the IC50 ([1]; Table 2)?
A: 100 to 500 nM

Q: And the MIC (S. aureus Smith; [5])?
A: 10 to 50 µM (≈ 4.27 to 21.4 µg/mL)

Q: What about the inhibition in vivo at 300 mg/kg [2, 6] of the same compound?
A: > 20%

Q: With `CC1(C)COc2c(NCCCn3ccnc3)c(F)c(N)c3c(=O)c(C(=O)O)cn1c23` [compound 33] as the compound, how does the MIC (E. coli, ATCC8739; [4]) read?
A: > 50 µM

Q: And the IC50 ([1]; Table 2)?
A: 100 to 500 nM

Q: And the MIC (S. aureus Smith; [5])?
A: > 50 µM

Q: What about the inhibition in vivo at 300 mg/kg [2, 6] of the same compound?
A: > 20%

Q: For `C[C@H]1COc2c(NCCS(=O)(=O)N3CCCCC3)c(F)c(N)c3c(=O)c(C(=O)O)cn1c23` [Example 112], which IC50 ([1]; Table 2) is on record?
A: < 100 nM

Q: And the inhibition in vivo at 300 mg/kg [2, 6]?
A: < 5%
